From patent publication US8722896B2, “Prokineticin receptor antagonists and uses thereof” (The Regents of the University of California, priority 2008, dated 2014)

B1: PK2: "Mature human prokineticins (PK1 and PK2) contain 86 and 81 amino acids, respectively"; "recombinant PK2" used as agonist (protein, UniProt Q9HC23 28-129, looked up)
Prokineticin-2: AVITGACDKDSQCGGGMCCAVSIWVKSIRICTPMGKLGDSCHPLTRKNNFGNGRQERRKRKRSKRKKEVPFFGRRMHHTCPCLPGLACLRTSFNRFICLAQK

What was measured:
[1] = Glucose tolerance test (GTT), mice fed regular chow; format: in vivo
Protocol: (§1) The compound (3R)-1-Benzyl-N-(9-chloro-3,4-dihydro-2H-1,5-benzodioxepin-7-ylmethyl)-N-isobutyl pyrrolidine-3-carboxamide (3Cl-R-PLP) was dissolved in PEG-400 and then resuspended in water with 8% final concentration of PEG-400.8% PEG-400 in water without drug was used as vehicle. Mice were fed with regular chow. Drug or vehicle was gavaged to mice that were fasted overnight. Two hours later, glucose (2 g/kg of body weight) was injected i.p. and whole venous blood obtained from the tail vein at 0, 15, 30, 90 and 120 min after the injection was measured for glucose by using an automatic glucometer (one Touch, Lifescan, Daly, Calif.).

[2] = GTT in mice fed high-fat diet (diet-induced hyperglycemia); format: in vivo; conditions: 40 mg/kg body weight, mice on high fat diet 8 weeks (FIG. 2)
Protocol: as §1
High fat diet was fed to mice for 8 weeks to induced diet-induced hyperglycemia. GTT test was carried out as described earlier.

[3] = Chronic treatment in diet-induced diabetes model, circulating glucose; format: in vivo, mice; conditions: 0.1 and 0.01 mg/ml in drinking water for two weeks; measured 3, 7 and 14 days; high-fat diet 8 weeks (FIG. 3)
Protocol: Diet-induced diabetes models were created by feeding with high-fat diet for 8 weeks. These mice developed glucose intolerance and hyperglycemia. 3Cl-R-PLP was dissolved in drinking water and given to mice for two weeks. Circulating glucose levels were measured 3, 7 and 14 days after 3Cl-R-PLP treatment.

[4] = Chronic treatment in db/db mice, glucose levels; format: in vivo; conditions: 0.1 mg/mL in drinking water, 2 weeks, 10-week old db/db mice, fed and fasting conditions (FIG. 4)
Protocol: Db/db mice are commonly used as genetic models of type II diabetes. 10-week old db/db mice were treated with 3Cl-R-PLP (0.1 mg/mL in drinking water) or vehicle for 2 weeks.

[5] = PK2 administration in GTT, wild type mice; format: in vivo; conditions: 10 nmol/kg and 200 nmol/kg, wild type mice (FIG. 8)
Protocol: as §1
The inventors next tested the effect of PK2 administration on the performance of GTT test in wild type mice. […] This is consistent with observations that PK2-deficient mice have enhanced glucose clearance abilities.

[6] = Glucose-induced insulin secretion in vivo after PK2 administration; parameters: species or system mice; conditions: glucose i.p., 30 min (FIG. 10)
Text: To understand whether insulin is directly involved, the inventors examined whether PK2 and/or its two cognate receptors, PKR1 and PKR2, are expressed in pancreas beta cells. […] The inventors tested whether this glucose-induced insulin secretion was inhibited by PK2. […] Consistent with the inhibitory effect of PK2 on insulin secretion, PK2-deficient mice have increased circulating insulin level. It is likely that at least some of glucose-lowering effects of PK2 antagonists were due to their abilities to increase insulin secretion as depicted in FIG. 11.

[7] = test system: MIN6 cells; test: Glucose-stimulated insulin secretion in MIN6 cells; format: cell-based; conditions: 15 mM glucose, PK2 added (FIG. 12A)
Text: (§2) To investigate the direct effects of PK2 on the insulin secretion, the inventors performed a glucose-stimulated insulin secretion on β-cell like MIN6 cells. […] To specifically test the effects of endogenous PK2, the inventors treated MIN6 cells with 4Ind-3Cl-R-BMA along with low and high concentrations of glucose. […] As PK2 receptors have been reported coupling to Gi or Gq proteins, the inventors examined the possible signaling transduction of PK2 receptor in MIN6 cells.

[8] = test system: MIN6 cells; test: Forskolin-induced cAMP levels in MIN6 cells; format: cell-based; conditions: PK2 (FIG. 12C)
Text: as §2

[9] = test system: MIN6 cells; test: Cytosolic calcium mobilization in MIN6 cells; format: cell-based
Text: as §2

| Molecule | dose dependence of performance in GTT ([1]; 0, 1, 4, 12 and 40 mg/kg of body weight (FIG. 1B)) | glucose clearance in GTT ([1]; 4 mg/kg of body weight, gavage 2 h before glucose 2 g/kg i.p., fasted mice, regular chow (FIG. 1A)) | glucose clearance in GTT [2] | circulating glucose levels [3] | glucose levels [4] | rate of glucose clearance in GTT [5] | glucose-induced elevation of circulating insulin [6] | insulin secretion induced by glucose [7] | forskolin-induced cAMP levels [8] | cytosolic calcium mobilization [9] |
| --- | --- | --- | --- | --- | --- | --- | --- | --- | --- | --- |
| CC(C)CN(Cc1cc(Cl)c2c(c1)OCCCO2)C(=O)[C@@H]1CCN(Cc2ccccc2)C1 [Example 15, (3R)-1-Benzyl-N-(9-chloro-3,4-dihydro-2H-1,5-benzodioxepin-7-ylmethyl)-N-isobutyl pyrrolidine-3-carboxamide] | dose-dependent effect | improved glucose clearance significantly | significantly improved glucose clearance | effectively decreased the glucose levels | significantly decreased glucose levels |  |  |  |  |  |
| B1 |  |  |  |  |  | significantly reduced the rate of glucose clearance | significantly inhibited glucose-induced elevation of insulin in circulation | significantly suppressed the insulin secretion | significantly inhibited forskolin-induced cAMP levels | didn't elicit cytosolic calcium mobilization |
